According to publication PMC7810988, “Inositol pyrophosphates promote the interaction of SPX domains with the coiled-coil motif of PHR transcription factors to regulate plant phosphate homeostasis” (Nature Communications, 2021):

Tests used:
Type in all cases: binding
[1] = molecular target: T1, AtPHR1^280–360 (Arabidopsis thaliana, UniProt Q94CL7, K325A/H328A/R335A); assay: […] TROSY NMR titration; conditions: 25 mM HEPES pH 7.0, 200 mM NaCl, 0.5 mM TCEP, 30 °C
T1 construct: gene PHR1; coiled-coil domain fragment, residues 280-360, 6xHis tag cleaved by TEV, 15N,2H-labeled, E. coli
T1 sequence (Q94CL7 280-360 K325A/H328A/R335A): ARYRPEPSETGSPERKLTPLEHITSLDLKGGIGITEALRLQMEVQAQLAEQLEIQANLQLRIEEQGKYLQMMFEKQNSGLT

[2] = molecular target: T2, OsSPX4–OsPHR2 (Oryza sativa, UniProt Q10B79); assay: isothermal titration calorimetry
T2 construct: gene SPX4; OsSPX4 1-321 (cloning sentence prints OsSPX2 1-321, purification OsSPX4 1-321; His-Strep-Sumo tag cleaved) with full-length OsPHR2 1-426 (His-Strep-GB1 tag, TEV cleaved); E. coli; with Protein PHOSPHATE STARVATION RESPONSE 2
T2 sequence (Q10B79 whole entry): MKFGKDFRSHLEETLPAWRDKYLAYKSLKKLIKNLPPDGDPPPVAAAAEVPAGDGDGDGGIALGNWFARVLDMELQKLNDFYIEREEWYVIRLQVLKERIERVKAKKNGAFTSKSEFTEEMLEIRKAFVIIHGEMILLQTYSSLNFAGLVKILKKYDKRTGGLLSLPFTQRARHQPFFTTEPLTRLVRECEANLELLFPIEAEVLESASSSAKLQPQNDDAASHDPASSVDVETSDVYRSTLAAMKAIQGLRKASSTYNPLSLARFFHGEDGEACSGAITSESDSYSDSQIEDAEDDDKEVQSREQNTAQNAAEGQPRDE
T2 sequence (Q6Z156 whole entry partner): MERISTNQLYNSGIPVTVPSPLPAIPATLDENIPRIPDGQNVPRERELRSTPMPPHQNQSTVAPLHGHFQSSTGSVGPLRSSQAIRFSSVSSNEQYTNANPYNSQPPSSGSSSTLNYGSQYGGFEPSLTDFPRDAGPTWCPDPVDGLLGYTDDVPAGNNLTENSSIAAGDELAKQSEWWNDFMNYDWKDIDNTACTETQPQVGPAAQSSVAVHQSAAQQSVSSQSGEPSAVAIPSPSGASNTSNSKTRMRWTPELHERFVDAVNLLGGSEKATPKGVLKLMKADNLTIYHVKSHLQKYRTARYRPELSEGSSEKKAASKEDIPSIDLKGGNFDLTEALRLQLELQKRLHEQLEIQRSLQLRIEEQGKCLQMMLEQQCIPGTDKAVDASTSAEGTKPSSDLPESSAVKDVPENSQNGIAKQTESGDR

[3] = molecular target: T3, AtPHR1^280–360 (Arabidopsis thaliana, UniProt Q94CL7); assay: […] TROSY NMR titration; conditions: 25 mM HEPES pH 7.0, 200 mM NaCl, 0.5 mM TCEP, 30 °C
T3 construct: gene PHR1; coiled-coil domain fragment, residues 280-360, 6xHis tag cleaved by TEV, 15N,2H-labeled, E. coli
T3 sequence (Q94CL7 280-360): as the sequence (Q94CL7 280-360 K325A/H328A/R335A) above, with A46K, A49H, A56R counted along it

SMILES	KD [1]	Kd [2] [µM]	KD [3]
O=P(O)(O)O[C@@H]1[C@@H](OP(=O)(O)O)[C@H](OP(=O)(O)OP(=O)(O)O)[C@@H](OP(=O)(O)O)[C@H](OP(=O)(O)OP(=O)(O)O)[C@@H]1OP(=O)(O)O [InsP8]	repeated the same set of experiments using the AtPHR1^KHR/A mutant protein	~3	The derived dissociation constant is in the millimolar range and saturation could not be reached
O=P(O)(O)O[C@H]1[C@@H](OP(=O)(O)O)[C@H](OP(=O)(O)O)[C@@H](OP(=O)(O)OP(=O)(O)O)[C@H](OP(=O)(O)O)[C@H]1OP(=O)(O)O [InsP7]	–	~7	–
